Patent US6589977B1, “Pyrrole derivatives and cell death inhibitors” (Sagami Chemical Research Center, priority 1999, dated 2003)

What was measured:
[1] = test system: Porcine ovarian granulosa cells (POGC); experiment: Inhibition of SNP-induced apoptosis of porcine ovarian granulosa cells; type: cell-based; details: SNP 0.5 mM; cells observed after 18 hours
Excerpt: (§1) Porcine ovaries were washed with PBS buffer, and Porcine ovarian granulosa cells (POGC) were collected by aspiration from follicles with a syringe. Cell fraction was recovered as a precipitate by centrifugation of the suspension. The operation of suspending the cell fraction into PBS buffer and subjecting the resulting suspension to centrifugation was repeated three times to wash the cells. The POGC obtained as a precipitate were suspended again into a culture medium (DMEM containing 10% fetal bovine serum) and cell clumps were disrupted by pipetting. The cell suspension was passed through a mesh to remove contaminating tissue fragments, and then pipetted in 24-well plates for cell culture. The cell suspension was cultured for 2 days in a CO2 incubator according to a conventional procedure (37° C., 5% CO2). Then, the medium was refreshed to remove floating cells and the cultivation was continued further 2 to 3 days until the cells reached subconfluency (0.7 to 2×10^5 cell/well). After the attaching cells were washed with serum-free medium, they were cultured in a serum-free DMEM (containing 5 μg/mL of transferrin, and 40 ng/mL of hydrocortisone, 4 mg/mL of bovine serum albumin (BSA), 100 nM androstendione) and it was possible to continue to culture cells with relatively immature differentiation. […] The cell death was also confirmed by MTT assay. Then, various concentrations of the test compounds were added to the present culture system and the cells were observed after 18 hours.

cerebellar granule cells [2] = experiment: Inhibition of low potassium medium-induced death of cerebellar granule cells; type: cell-based, rats; details: compound 10 μM; low potassium medium (5 mM KCl); after 18 hours
Experimental: (§2) According to a known method (A Dissection and Tissue Culture Manual of the Nervous System, p. 211, 1989, Alan R, Liss, Inc.), cerebellar granule cells were isolated from the cerebellum of 7 days old rats and cultured. Namely, after conducting isolation procedures described in the above literature, the resulting cells were resuspended in DMEM containing 10% fetal bovine serum, 25 mM KCl and 2 mM glutamine, and seeded in poly-lysine coated plates. After the cells were cultured in a CO2 incubator for 48 hours according to a conventional method, cytosine-1-β-D(+)-arabinofuranoside (Ara-C) (10 μM) was added thereto, and the cell was continued to culture. The following experiments were conducted with the cells of 7 to 14 days old from the start day of the cultivation, the cells having completed neurite extension sufficiently.
It is known that neuronal cells undergo cell death when they are cultured in a medium of low potassium (Proc. Natl. Acad. Sci. U.S.A., volume 90, p 10989, 1993). […] When the test compound 1 (10 μM), the test compound 10 (10 μM), or the test compound 15 (10 μM)coexisted, 50%, 80%, and 85% of cells were respectively alive on an observation made similarly after 18 hours.

Hela 3S cells = experiment: Anti-cell death effect on Hela 3S cells cultured in Krebs Ringer Buffer; type: cell-based, human; details: compound 10 μM
Experimental: Hela 3S cells (culture medium: DMEM containing 10% fetal bovine serum), a cell line derived from human cervical cancer, were seeded into multi 48 well plates and cultured in a CO2 incubator according to conventional procedures. Confirming the subconfluency of a cell culture, the medium was replaced with Krebs Ringer Buffer (120 mM NaCl, […], 1 mM KH2PO4, […], 20 mM HEPES, pH 7.4, 2.57 g/L glucose, 0.05 g/L Phenol Red) and washed three times with the same buffer and cultivation continued in the same buffer. […] When the test compound 1 (10 μM) or the test compound 15 (10 μM) was added in the present culture system and cultivation continued similarly, the proportion of normal cells increased 59% or 77% respectively, and the proportion of necrosis-like cells decreased (1% or 0%, respectively), indicating the anti-cell death effects.

cerebellar granule cells [3] = experiment: Inhibition of hydrogen peroxide-induced death of cerebellar granule cells; type: cell-based, rats; details: compound 10 μM added prior to hydrogen peroxide (10 μM); after 12 hours
Experimental: as §2

erythrocytes = experiment: Inhibition of hydrogen peroxide-induced hemolysis of erythrocytes; type: cell-based, Human; details: compound 10 μM added prior to hydrogen peroxide (300 μM); after 24 hours
Experimental: Human blood was collected and precipitated by a centrifugation (1000 rpm, 5 min) and the precipitate containing erythrocytes was washed three times with PBS and resuspended (about 5×10^8 cells/ml) with DMEM containing 10% fetal bovine serum. Cell suspensions were dispensed into a 48-well plate to become subconfluent (about 5×10^5 cells/0.5 ml/well). When hydrogen peroxide (300 μM) was added and cultivation continued for 24 hours, more than 95% of erythrocytes underwent hemolysis and become dark and ghost-like on an observation under a light microscopy.

undifferentiated POGC = experiment: Inhibition of hydrogen peroxide-induced cell death of undifferentiated POGC; type: cell-based, Porcine; details: compound 0.3 μM added prior to hydrogen peroxide (100 μM); observation after 18 hour
Excerpt: as §1, with “Then, various concentrations of the test compounds were added to the present culture system and the cells were observed after 18 hours.” left out

Cc1ccc2[nH]cc(-c3cn(C)cc3-c3cn(C)c4ccc(C)cc34)c2c1 [Compound 24, 3-(1,5-dimethyl-1H-indol-3-yl)-4-(5-methyl-1H-indol-3-yl)-1-methylpyrrole]
MEC (Minimum effective concentration for more than 95% of inhibition of cell death) [1]: 0.1 µM

Cn1cc(-c2cn(C)c3ccccc23)c(-c2cn(C)c3ccccc23)c1 [Compound 9]
MEC (Minimum effective concentration for more than 95% of inhibition of cell death) [1]: 0.3 µM

CN(C)CCCn1cc(-c2cn(C)cc2-c2c[nH]c3ccccc23)c2ccccc21 [Compound 6]
MEC (Minimum effective concentration for more than 95% of inhibition of cell death) [1]: 0.3 µM

c1ccc(Cn2cc(-c3c[nH]c4ccccc34)c(-c3c[nH]c4ccccc34)c2)cc1 [Compound 18]
MEC (Minimum effective concentration for more than 95% of inhibition of cell death) [1]: 0.3 µM

c1ccc(-n2cc(-c3c[nH]c4ccccc34)c(-c3c[nH]c4ccccc34)c2)cc1 [Compound 17]
MEC (Minimum effective concentration for more than 95% of inhibition of cell death) [1]: 0.3 µM

Cn1cc(-c2c[nH]c3ccccc23)c(-c2cn(CCCN)c3ccccc23)c1 [Compound 4]
MEC (Minimum effective concentration for more than 95% of inhibition of cell death) [1]: 0.3 µM

Cn1cc(-c2c[nH]c3ccc(F)cc23)c(-c2c[nH]c3ccc(F)cc23)c1 [Compound 12]
MEC (Minimum effective concentration for more than 95% of inhibition of cell death) [1]: 1 µM

Cn1cc(-c2c[nH]c3ccccc23)c(-c2c[nH]c3ccccc23)c1 [Compound 1]
cells alive (cerebellar granule cells [2]): 50% | proportion of necrosis-like cells (Hela 3S cells; after 5 hours (11% without compound)): 1% | proportion of normal cells (Hela 3S cells; after 5 hours (42% normal without compound)): 59% | cells alive (cerebellar granule cells [3]): more than 80% | MEC (Minimum effective concentration for more than 95% of inhibition of cell death) [1]: 0.3 µM | inhibition of hemolysis (erythrocytes): almost complete inhibition of hemolysis

CN(C)CCCn1cc(-c2cn(C)cc2-c2cn(CCCN(C)C)c3ccccc23)c2ccccc21 [Compound 7]
MEC (Minimum effective concentration for more than 95% of inhibition of cell death) [1]: 1 µM

COc1ccc2c(c1)c(-c1cn(C)cc1-c1cn(C)c3ccc(OC)cc13)cn2C [Compound 14]
MEC (Minimum effective concentration for more than 95% of inhibition of cell death) [1]: 1 µM

Cc1ccc2[nH]cc(-c3cn(C)cc3-c3cn(C(=O)OC(C)(C)C)c4ccc(C)cc34)c2c1 [Compound 22]
MEC (Minimum effective concentration for more than 95% of inhibition of cell death) [1]: 0.3 µM

Cn1cc(-c2c[nH]c3ccccc23)c(-c2cn(C)c3ccccc23)c1 [Compound 8]
MEC (Minimum effective concentration for more than 95% of inhibition of cell death) [1]: 0.3 µM

Cc1cccc2c(-c3cn(C)cc3-c3c[nH]c4c(C)cccc34)c[nH]c12 [Compound 10]
cells alive (cerebellar granule cells [2]): 80% | cells alive (cerebellar granule cells [3]): > 95% | MEC (Minimum effective concentration for more than 95% of inhibition of cell death) [1]: 0.03 µM | inhibition of hemolysis (erythrocytes): almost complete inhibition of hemolysis

Cn1cc(-c2cn(CCCN)c3ccccc23)c(-c2cn(CCCN)c3ccccc23)c1 [Compound 5]
MEC (Minimum effective concentration for more than 95% of inhibition of cell death) [1]: 0.1 µM

COc1ccc2[nH]cc(-c3cn(C)cc3-c3c[nH]c4ccc(OC)cc34)c2c1 [Compound 13]
MEC (Minimum effective concentration for more than 95% of inhibition of cell death) [1]: 0.3 µM

Cc1[nH]c2ccccc2c1-c1cn(C)cc1-c1c(C)[nH]c2ccccc12 [Compound 11]
MEC (Minimum effective concentration for more than 95% of inhibition of cell death) [1]: 0.1 µM

Cc1ccc2c(c1)c(-c1cn(C)cc1-c1cn(C(=O)OC(C)(C)C)c3ccc(C)cc13)cn2C(=O)OC(C)(C)C [Compound 23]
MEC (Minimum effective concentration for more than 95% of inhibition of cell death) [1]: 10 µM

Cn1cc(-c2cn(C(=O)OC(C)(C)C)c3ccccc23)c(-c2cn(C(=O)OC(C)(C)C)c3ccccc23)c1 [Compound 3]
MEC (Minimum effective concentration for more than 95% of inhibition of cell death) [1]: 10 µM

Cn1cc(-c2c[nH]c3ccccc23)c(-c2cn(C(=O)OC(C)(C)C)c3ccccc23)c1 [Compound 2]
MEC (Minimum effective concentration for more than 95% of inhibition of cell death) [1]: 0.3 µM

Cc1ccc2c(c1)c(-c1cn(C)cc1-c1cn(CCCN)c3ccc(C)cc13)cn2C [Compound 16]
MEC (Minimum effective concentration for more than 95% of inhibition of cell death) [1]: 0.1 µM | inhibition of cell death (undifferentiated POGC): complete inhibition of cell death | survival of the cells (undifferentiated POGC): more than 95%
